Consider 14 compounds from patent publication US20230099344A1, “COMPOUNDS AND METHODS FOR THE TARGETED DEGRADATION OF IRAK-4” (Arvinas Operations, Inc., priority 2021, published 2023).

Holding throughout (assay type): cell-based
Assay [1] relates to IL6. The assay can be described thus: LPS stimulated IL6 inhibition assay in PBMC. As to conditions: Homo sapiens, PBMC, 24 h, human PBMCs, LPS stimulation, compound overnight, IL6 by MSD after 24 hrs; for Dmax: read-out: LPS Stim IL6 inhibition Dmax; for IC50: read-out: LPS stim IL6 inhibition IC50. The essentials:
(§1)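 Read-out: MSD quantification of IL6 or IL8 in media collected 24 hrs after stimulation. Human PBMCs (2.0×10^6 cells/mL) received compound overnight before stimulant dosing at an EC50 concentration determined per donor.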

Assay [2] relates to IL6. The assay can be described thus: R848 stimulated IL6 inhibition assay in PBMC. As to conditions: PBMC, human PBMCs, R848 stimulation, compound overnight, IL6 by MSD after 24 hrs; for Dmax: Homo sapiens, 24 h, read-out: R848 stim IL6 inhibition Dmax; for IC50: read-out: R848 stim IL6 inhibition IC50. Summed up:
as §1

Another assay addresses T1, IRAK-4 (Homo sapiens, UniProt Q9NWZ3).
T1 sequence (Q9NWZ3 1-460): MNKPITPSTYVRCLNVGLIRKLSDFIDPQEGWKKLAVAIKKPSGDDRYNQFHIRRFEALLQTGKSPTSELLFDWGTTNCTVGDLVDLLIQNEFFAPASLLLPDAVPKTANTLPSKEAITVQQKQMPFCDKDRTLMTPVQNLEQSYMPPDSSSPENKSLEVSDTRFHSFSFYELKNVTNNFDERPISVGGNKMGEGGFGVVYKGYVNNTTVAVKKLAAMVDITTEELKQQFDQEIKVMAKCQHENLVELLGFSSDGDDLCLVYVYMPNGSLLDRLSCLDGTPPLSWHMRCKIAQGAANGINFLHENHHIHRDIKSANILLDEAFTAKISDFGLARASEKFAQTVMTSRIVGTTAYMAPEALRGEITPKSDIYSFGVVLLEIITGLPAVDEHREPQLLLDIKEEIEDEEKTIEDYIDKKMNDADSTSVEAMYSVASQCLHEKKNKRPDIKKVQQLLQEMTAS
Put plainly: IRAK-4 ELISA, PBMC degradation. Details: endogenous in cells; host or cells: PBMC. Conditions: treated overnight. Summed up: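 Readout: IRAK-4 protein level in cell lysate, sandwich ELISA. Cells: OCI-Ly10 at 1×10^6/ml or PBMC at 2×10^6/ml, compound added same day, overnight incubation.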
For orientation: In an ELISA, binding on a coated surface is turned into a signal by an enzyme label.

The structures appear in SMILES notation.

`O=C1CCC(N2C(=O)c3ccc(N4CCC5(CC4)CN(CCN4CCC(n6cc7cc(NC(=O)c8cnn9cccnc89)c(OCC8CC8)cc7n6)CC4)C5)cc3C2=O)C(=O)N1` (centres unmarked) [Example 249]: in the assay on IL6 [1], the Dmax was less than 70% and the IC50 is no less than 0.1 µM. Further, in the assay on IL6 [2], the Dmax lay in the range of 80 to 90% and the IC50 was in the range of 0.01 to 0.05 µM. On IRAK-4, the half-maximal degradation concentration (DC50) lay in the range of 0.001 to 0.005 µM, the Dmax is no less than 90% and the “PBMC DC90” value is given as “A (A represents a DC90 value <10.0 nM)”.

For `O=C1CCC(N2Cc3c(ccc(N4CC(F)(CN5CCC(n6cc7cc(NC(=O)c8cnn9cccnc89)c(OCC8CC8)cc7n6)CC5)C4)c3F)C2=O)C(=O)N1` (centres unmarked) [Example 250], in the assay with IL6 [1], the Dmax is less than 70% and the half-maximal inhibitory concentration (IC50) was no less than 0.1 µM. Also, in the assay with IL6 [2], the Dmax was in the range of 80 to 90% and the IC50 was 0.01 to 0.05 µM. Further, at IRAK-4, the 50% degradation concentration (DC50) fell in the range of 0.001 to 0.005 µM; the Dmax fell in the range of 80 to 90%; the “PBMC DC90” value was “B (B represents a DC90 value ≥10.0 nM and <25.0 nM)”.

Consider `O=C1CCC(N2Cc3c(ccc(N4CC(F)(CN5CCC(n6cc7cc(NC(=O)c8cnn9cccnc89)c(OCC(F)F)cc7n6)CC5)C4)c3F)C2=O)C(=O)N1` (centres unmarked) [Example 251], for which, in the assay with IL6 [1], the Dmax was less than 70% and the 50% inhibitory concentration (IC50) lay within 0.05 to 0.1 µM. For the same compound, in the assay on IL6 [2], the Dmax was 80 to 90% and the half-maximal inhibitory concentration (IC50) was in the range of 0.01 to 0.05 µM. On IRAK-4, the DC50 was 0.001 to 0.005 µM, the Dmax fell in the range of 80 to 90% and the “PBMC DC90” value was “A (A represents a DC90 value <10.0 nM)”.

Regarding `O=C1CC[C@@H](N2C(=O)c3ccc(N4CC(F)(CN5CCC(n6cc7cc(NC(=O)c8cnn9cccnc89)c(OCC8CC8)cc7n6)CC5)C4)cc3C2=O)C(=O)N1` [Example 253], in the assay with IL6 [1], the Dmax was less than 70% and the half-maximal inhibitory concentration (IC50) was 0.01 to 0.05 µM. Moreover, in the assay on IL6 [2], the Dmax was no less than 90% and the IC50 fell in the range of 0.01 to 0.05 µM. Also, on IRAK-4, the half-maximal degradation concentration (DC50) lay within 0.001 to 0.005 µM; the Dmax was no less than 90%; the “PBMC DC90” value is “B (B represents a DC90 value ≥10.0 nM and <25.0 nM)”.

In the case of `O=C1CC[C@H](N2C(=O)c3ccc(N4CC(F)(CN5CCC(n6cc7cc(NC(=O)c8cnn9cccnc89)c(OCC8CC8)cc7n6)CC5)C4)cc3C2=O)C(=O)N1` [Example 254], in the assay with IL6 [1], the Dmax is less than 70% and the half-inhibitory concentration (IC50) was in the range of 0.05 to 0.1 µM. In the assay with IL6 [2], the Dmax is no less than 90% and the IC50 fell in the range of 0.01 to 0.05 µM. Moreover, at IRAK-4, the DC50 was in the range of 0.001 to 0.005 µM, the Dmax is no less than 90% and the “PBMC DC90” value was “A (A represents a DC90 value <10.0 nM)”.

On to `O=C1CCC(N2C(=O)c3ccc(N4CC(F)(CN5CCC(n6cc7cc(NC(=O)c8cnn9cc(Cl)cnc89)c(OCC8CC8)cc7n6)CC5)C4)cc3C2=O)C(=O)N1` (centres unmarked) [Example 255], for which, in the assay on IL6 [1], the Dmax is 70 to 80% and the concentration for half-maximal inhibition (IC50) lay within 0.05 to 0.1 µM. In addition, in the assay on IL6 [2], the Dmax is no less than 90% and the IC50 fell in the range of 0.05 to 0.1 µM. For the same compound, at IRAK-4, the DC50 was no less than 0.01 µM, the Dmax is no less than 90% and the “PBMC DC90” value is reported as “D (D represents a DC90 value ≥50 nM)”.

Consider `CC(C)(C1CN(c2ccc3c(c2)C(=O)N(C2CCC(=O)NC2=O)C3=O)C1)N1CCC(n2cc3cc(NC(=O)c4cnn5cccnc45)c(OCC4CC4)cc3n2)CC1` (centres unmarked) [Example 256], for which, in the assay with IL6 [1], the Dmax was less than 70% and the IC50 was 0.01 to 0.05 µM. In the assay with IL6 [2], the Dmax was in the range of 80 to 90% and the IC50 was in the range of 0.01 to 0.05 µM. Further, at IRAK-4, the DC50 is less than 0.001 µM, the Dmax is no less than 90% and the “PBMC DC90” value is “A (A represents a DC90 value <10.0 nM)”.

In the case of `O=C1CCC(N2C(=O)c3ccc(N4CCC(O)(CN5CCC(n6cc7cc(NC(=O)c8cnn9cccnc89)c(OCC8CC8)cc7n6)CC5)CC4)cc3C2=O)C(=O)N1` (centres unmarked) [Example 257], in the assay with IL6 [1], the Dmax was 70 to 80% and the 50% inhibitory concentration (IC50) lay within 0.01 to 0.05 µM. Besides, in the assay with IL6 [2], the Dmax is no less than 90% and the IC50 fell in the range of 0.01 to 0.05 µM. Besides, at IRAK-4, the DC50 lay within 0.001 to 0.005 µM, the Dmax is no less than 90% and the “PBMC DC90” value was “A (A represents a DC90 value <10.0 nM)”.

Consider `O=C1CCC(N2Cc3cc(N4CCC(O)(CN5CCC(n6cc7cc(NC(=O)c8cnn9cccnc89)c(OCC8CC8)cc7n6)CC5)CC4)ccc3C2=O)C(=O)N1` (centres unmarked) [Example 258], for which, in the assay with IL6 [1], the Dmax lay in the range of 70 to 80% and the IC50 was less than 0.01 µM. Also, in the assay with IL6 [2], the Dmax was no less than 90% and the half-inhibitory concentration (IC50) is 0.01 to 0.05 µM. In addition, on IRAK-4, the half-maximal degradation concentration (DC50) was less than 0.001 µM, the Dmax was in the range of 80 to 90% and the “PBMC DC90” value is given as “A (A represents a DC90 value <10.0 nM)”.

As to `O=C1CCC(N2C(=O)c3ccc(N4CCC5(CC4)CC(CN4CCC(n6cc7cc(NC(=O)c8cnn9cccnc89)c(OCC8CC8)cc7n6)CC4)C5)cc3C2=O)C(=O)N1` (centres unmarked) [Example 261], in the assay on IL6 [1], the Dmax lay within 80 to 90% and the IC50 fell in the range of 0.01 to 0.05 µM. Also, in the assay with IL6 [2], the Dmax was 80 to 90% and the IC50 was in the range of 0.05 to 0.1 µM. Moreover, on IRAK-4, the 50% degradation concentration (DC50) was 0.001 to 0.005 µM, the Dmax is no less than 90% and the “PBMC DC90” value was “A (A represents a DC90 value <10.0 nM)”.

`O=C1CCC(N2C(=O)c3ccc(N4CC(F)(CN5CCC(n6cc7cc(NC(=O)c8cnn9cccnc89)c(OCC8CC8)cc7n6)CC5)C4)c(F)c3C2=O)C(=O)N1` (centres unmarked) [Example 262]: in the assay with IL6 [1], the Dmax is less than 70% and the half-inhibitory concentration (IC50) fell in the range of 0.05 to 0.1 µM. Moreover, in the assay with IL6 [2], the Dmax was no less than 90% and the IC50 lay within 0.01 to 0.05 µM. In addition, at IRAK-4, the DC50 is 0.001 to 0.005 µM, the Dmax is 70 to 80% and the “PBMC DC90” value is “A (A represents a DC90 value <10.0 nM)”.

Consider `CN1CC(Oc2cc3nn(C4CCN(CC5(F)CN(c6ccc7c(c6)C(=O)N(C6CCC(=O)NC6=O)C7=O)C5)CC4)cc3cc2NC(=O)c2cnn3cccnc23)C1` (centres unmarked) [Example 263], for which, in the assay with IL6 [1], the Dmax is less than 70% and the half-inhibitory concentration (IC50) is less than 0.01 µM. Moreover, in the assay with IL6 [2], the Dmax was no less than 90% and the IC50 fell in the range of 0.01 to 0.05 µM. At IRAK-4, the DC50 was no less than 0.01 µM, the Dmax was no less than 90% and the “PBMC DC90” value is reported as “A (A represents a DC90 value <10.0 nM)”.

Turning to `O=C1CCC(N2Cc3c(F)cc(N4CC(F)(CN5CCC(n6cc7cc(NC(=O)c8cnn9cccnc89)c(OCC8CC8)cc7n6)CC5)C4)cc3C2=O)C(=O)N1` (centres unmarked) [Example 268, N-[6-(cyclopropylmethoxy)-2-[1-({1-[2-(2,6-dioxopiperidin-3-yl)-7-fluoro-3-oxo-2,3-dihydro-1H-isoindol-5-yl]-3-fluoroazetidin-3-yl}methyl)piperidin-4-yl]-2H-indazol-5-yl]pyrazolo[1,5-a]pyrimidine-3-carboxamide], in the assay with IL6 [1], the Dmax lay in the range of 70 to 80% and the half-inhibitory concentration (IC50) lay in the range of 0.01 to 0.05 µM. In the assay on IL6 [2], the Dmax was no less than 90% and the half-inhibitory concentration (IC50) is 0.01 to 0.05 µM. In addition, at IRAK-4, the 50% degradation concentration (DC50) was less than 0.001 µM, the Dmax was no less than 90% and the “PBMC DC90” value was “A (A represents a DC90 value <10.0 nM)”.

Regarding `O=C1CCC(N2Cc3cc(F)c(N4CC(F)(CN5CCC(n6cc7cc(NC(=O)c8cnn9cccnc89)c(OCC8CC8)cc7n6)CC5)C4)cc3C2=O)C(=O)N1` (centres unmarked) [Example 269, N-[6-(cyclopropylmethoxy)-2-[1-({1-[2-(2,6-dioxopiperidin-3-yl)-6-fluoro-3-oxo-2,3-dihydro-1H-isoindol-5-yl]-3-fluoroazetidin-3-yl}methyl)piperidin-4-yl]-2H-indazol-5-yl]pyrazolo[1,5-a]pyrimidine-3-carboxamide], in the assay on IL6 [1], the Dmax fell in the range of 80 to 90% and the 50% inhibitory concentration (IC50) was 0.01 to 0.05 µM. Besides, in the assay on IL6 [2], the Dmax was no less than 90% and the IC50 was in the range of 0.01 to 0.05 µM. At IRAK-4, the half-maximal degradation concentration (DC50) was in the range of 0.001 to 0.005 µM, the Dmax fell in the range of 80 to 90% and the “PBMC DC90” value is listed as “A (A represents a DC90 value <10.0 nM)”.

By IC50 is commonly meant the concentration that gives 50% inhibition. By DC50 is commonly meant the concentration giving 50% degradation.
